Reference: patent publication US20120128580A1, “PRESELECTION OF SUBJECTS FOR THERAPEUTIC TREATMENT WITH ELESCLOMOL BASED ON HYPOXIC STATUS” (SYNTA PHARMACEUTICALS CORP., priority 2010, published 2012)

Legend:
[1] = system: Stave IV Metastatic melanoma; assay: Phase III study, elesclomol in combination with paclitaxel versus paclitaxel alone; assay type: in vivo, human; details: for Median (months) Overall Survival / Median (months) PFS: Phase III; for Median Progression Free Survival: Phase III metastatic melanoma, chemotherapy-naive
Experimental: Further, a Phase III study was performed to test elesclomol in combination with paclitaxel versus paclitaxel alone in chemotherapy-naïve subjects with Stave IV Metastatic melanoma. Subjects with metastatic melanoma were randomized with a ratio of 1:1 to either the treatment arm (elesclomol 213 mg/m^2 in combination with paclitaxel 80 mg/m^2) or the control arm (paclitaxel 80 mg/m^2 alone) once per week for the first three weeks, followed by one week off (i.e., a 28 day cycle with dosing on days 1, 8, and 14) with the 28 day dosing cycle repeated until tumor progression, likely resulting in complete clearance of elesclomol between doses. The population enrolled into the study was to have baseline LDH levels limited to 2 times upper limit of normal (ULN) values.

[2] = system: Stage 1V Metastatic melanoma; assay: Phase I/II study, elesclomol in combination with paclitaxel; assay type: in vivo, human; details: i.v. weekly for three weeks of 28 day cycle
Experimental: For example, a Phase I/II study was performed to test elesclomol in combination with paclitaxel in patients with Stage 1V Metastatic melanoma. Subjects were dosed intravenously with 80 mg/m^2 of paclitaxel either with or without 213 mg/m^2 of elesclomol once per week for the first three weeks, followed by one week off (i.e., a 28 day cycle with dosing on days 1, 8, and 14) with the 28 day dosing cycle repeated until tumor progression, likely resulting in complete clearance of elesclomol between doses.

For `CC(=O)O[C@H]1C(=O)[C@@]2(C)[C@H]([C@H](OC(=O)c3ccccc3)[C@]3(O)C[C@H](OC(=O)[C@H](O)[C@@H](NC(=O)c4ccccc4)c4ccccc4)C(C)=C1C3(C)C)[C@]1(OC(C)=O)CO[C@@H]1C[C@@H]2O` [P alone, paclitaxel], the “Median (months) Overall Survival” value ([1]; High LDH (>1 × ULN)) was 8.1 months, the “Median (months) PFS” value ([1]; High LDH (>1 × ULN)) was 1.9 months and the “Median Progression Free Survival” value ([1]; High LDH) was 1.9 (95% CI: 1.8-2.6) months. The “Median (months) Overall Survival” value ([1]; ITT Population) was 11.7 months, the “Median (months) PFS” value ([1]; ITT Population) was 1.9 months and the “Median (months) PFS” value ([1]; Low LDH (≦0.8 × ULN)) was 2.1 months. The “Median (months) Overall Survival” value ([1]; Low LDH (≦0.8 × ULN), listed as Paclitaxel alone) was “Not Ach”, the “Median (months) Overall Survival” value ([1]; Low LDH (≦0.8 × ULN), listed as paclitaxel alone) was “not achieved” and the “Median Progression Free Survival” value ([1]; Low LDH) was 2.1 (95% CI: 1.9-3.6) months. The “Median (months) Overall Survival” value ([1]; Normal LDH (≦1 × ULN)) was 14.5 months, the “Median (months) PFS” value ([1]; Normal LDH (≦1 × ULN)) was 2.1 months and the “Median Progression Free Survival” value ([2]; High LDH) was 1.6 (95% CI: 1.0-3.0) months. For the same molecule, the “Median Progression Free Survival” value ([2]; High LDH, listed as paclitaxel) was 1.6 months, the “Median Progression Free Survival” value ([2]; Low LDH) was 3.5 (95% CI: 1.6-7.3) months and the “Median Progression Free Survival” value ([2]; Low LDH, listed as paclitaxel) was 3.5 months.
